Laboratory results reported in patent US20260317367A1, “SALTS INCLUDING CRYSTALLINE SALTS OF 25-HYDROXY-CHOLEST-5-EN-3-SULFATE AND METHODS FOR PREPARING SAME” (Durect Corporation, priority 2022, published 2026).
Entries after “also recorded” stand apart in the source; their conditions may differ. Structures can show the parent of a compound that is named as a salt.

Experiments:
Type in all cases: physicochemical
[1] = Overall rank order of powder flowability (angle of repose and Hausner ratio); conditions: for Powder flowability, overall (in words): angle of repose and compressibility index/Hausner ratio combined; for Angle of Repose Rank Order / Hausner Ratio Rank Order / Overall Rank Order (Total Score): lower is better flow; for Overall Rank Order (Total Score): sum of both ranks
Source text: Table C5 was generated by adding the relative rank order of the 25HC3S salts for angle of repose and Hausner ratio results, and creating an Over All Rank Order of the salts powder flowability. The salts with the lower overall rank order score had better powder flowability.

[2] = Thermogravimetric analysis (TGA), weight loss
Experimental: (§1) Differential scanning calorimetry (DSC) is a thermoanalytical technique where the difference in the amount of heat required to increase the temperature of a sample and reference is measured as a function of temperature. Using this technique, phase transitions of a sample can be measured such as melting point. Decomposition can also be observed by DSC as can dehydration events. In the context of DSC measurements, there is also variability and the term “about” means ±1° C., and such variability is to be understood whether a DSC measurement is prefaced by “about” or not unless specified otherwise. Exemplary methods for collecting DSC data are set forth in Example 21. Thermogravimetric analysis, sometimes referred to as, thermal gravimetric analysis (TGA) is a thermal method of thermal analysis where the mass of a sample is measured as a function of time as the sample temperature changes. For example, when samples disclosed herein are heated and a loss in mass is measured prior to decomposition, this is likely indicative of the loss of water from the sample and may indicate that the sample being heated is a hydrate. Exemplary methods for collecting TGA are set forth in Example 23.
TG analysis was performed using a Mettler-Toledo TGA/DSC3 analyzer. Temperature and enthalpy adjustments were performed using indium, tin, and zinc, and then verified with indium. The balance was verified with calcium oxalate. The sample was placed in an open aluminum pan. The pan was hermetically sealed, the lid pierced, then inserted into the TG furnace. A weighed aluminum pan configured as the sample pan was placed on the reference platform. The furnace was heated under nitrogen. Each sample was heated from ambient temperature to 350° C. at 10° C./min. Although thermograms are plotted by reference temperature (x-axis), results are reported according to sample temperatures.

[3] = Dynamic vapor sorption (DVS), hygroscopicity; conditions: for Water uptake (weight gain) up to about 95% relative humidity: 5% to about 95% RH
[4] = X-ray powder diffraction before and after DVS (form stability); conditions: 5% to 95% RH
Experimental: XRPD patterns were collected with a PANalytical X'Pert PRO MPD or a PANalytical Empyrean diffractometer using an incident beam of Cu radiation produced using an Optix long, fine-focus source. An elliptically graded multilayer mirror was used to focus Cu Kα X-rays through the specimen and onto the detector. Prior to the analysis, a silicon specimen (NIST SRM 640f) was analyzed to verify the observed position of the Si 111 peak is consistent with the NIST-certified position. A specimen of the sample was sandwiched between 3-μm-thick films and analyzed in transmission geometry. A beam-stop, short antiscatter extension, and antiscatter knife edge were used to minimize the background generated by air. Soller slits for the incident and diffracted beams were used to minimize broadening and asymmetry from axial divergence. Diffraction patterns were collected using a scanning position-sensitive detector (X'Celerator) located 240 mm from the specimen and Data Collector software v. 5.5. All images have the instrument labeled as X'Pert PRO MPD regardless of the instrument used.
XRPD patterns were collected with a PANalytical X'Pert PRO MPD diffractometer using an incident beam of Cu Kα radiation produced using a long, fine-focus source and a nickel filter. The diffractometer was configured using the symmetric Bragg-Brentano geometry. Prior to the analysis, a silicon specimen (NIST SRM 640f) was analyzed to verify the observed position of the Si 111 peak is consistent with the NIST-certified position. A specimen of the sample was prepared as a thin, circular layer centered on a silicon zero-background substrate. Antiscatter slits (SS) were used to minimize the background generated by air. Soller slits for the incident and diffracted beams were used to minimize broadening from axial divergence. Diffraction patterns were collected using a scanning position-sensitive detector (X'Celerator) located 240 mm from the sample and Data Collector software v. 5.5
Dynamic vapor sorption data was collected on a Surface Measurement System DVS Intrinsic instrument. The samples were not dried prior to analysis. Sorption and desorption data were collected over a range from 5% to 95% RH in 10% RH increments under a nitrogen purge. The equilibrium criteria used for the analyses were 0.001 dm/dt weight change in 5 minutes with a minimum step time of 30 minutes and maximum equilibration time of 180 minutes with a 3 minute data logging interval. Data were not corrected for the initial moisture content of the sample.

[5] = Final pH of the solubility sample solutions in aqueous media; conditions: for pH of the solubility sample, 0.9% Sodium Chloride: 0.9% sodium chloride (blank 5.8); for pH of the solubility sample, 5% Dextrose: 5% dextrose (blank 4.7); for pH of the solubility sample, FaSSGF: FaSSGF (blank 1.5, 1.6); for pH of the solubility sample, FaSSIF: FaSSIF (blank 6.5, 6.5); for pH of the solubility sample, FeSSIF: FeSSIF (blank 4.9, 5.0); for pH of the solubility sample, Water: water (blank 6.3)
Experimental: 25HC3S salts were weighed in 8 mL or 4 mL glass vials with Teflon coated screw caps. Aliquots of each solvent were added to each sample and vortexed for about one minute until excess solid remained. Samples were placed on shaker at room temperature with 210 motion per minute shaking.
After one day, samples were pulled and checked if excess solid was present. About 1.5 mL aliquot of each sample was centrifuged at 12000 rpm for 12 to 15 minutes. […] Aliquots of the top clear solution of each centrifuged sample in MeOH, EtOH, IPA and ACN were diluted with diluent (water:MeOH 95:5) and assayed by HPLC. Samples of the salts in aqueous media were assayed by HPLC without dilution.
5.1 Solubility of 25HC3S Salts in Aqueous Media

[6] = Differential scanning calorimetry (DSC), thermal decomposition / endothermic transition; conditions: for Decomposition temperature (DSC): 10° C./min; for First significant endothermic transition (DSC): indicative of thermal degradation or solid-state transformation
Experimental: as §1
DSC was performed using a Mettler-Toledo DSC3+ differential scanning calorimeter. A tau lag adjustment is performed with indium, tin, and zinc. The temperature and enthalpy are adjusted with octane, phenyl salicylate, indium, tin and zinc. The adjustment is then verified with octane, phenyl salicylate, indium, tin, and zinc. The sample was placed into a hermetically sealed aluminum DSC pan, and the weight was accurately recorded. The pan was then inserted into the DSC cell. A weighed aluminum pan configured as the sample pan was placed on the reference side of the cell. The pan lid was pierced prior to sample analysis. Samples were analyzed from 30° C. to 350° C. or 30° C. to 250° C., both at 10° C./min.

[7] = DVS, listed as crystalline 25HC3S potassium
[8] = listed as crystalline 25HC3S potassium
[9] = listed as 25HC3S hydroxyethylpyrrolidinium
[10] = listed as crystalline 25HC3S hydroxyethylpyrrolidinium
[11] = listed as 25HC3S tromethammonium
[12] = DVS, listed as crystalline 25HC3S tromethammonium
[13] = listed as crystalline 25HC3S tromethammonium

CC(CCCC(C)(C)O)C1CCC2C3CC=C4CC(OS(=O)(=O)O)CCC4(C)C3CCC12C (stereo not shown) [Salt #1]
Powder flowability, overall (in words) ([1]; listed as potassium): top three | Angle of Repose Rank Order ([1]; listed as 25HC3S potassium): 6 | Hausner Ratio Rank Order ([1]; listed as 25HC3S potassium): 3 | Overall Rank Order (Total Score) ([1]; listed as 25HC3S potassium): 9 | Weight loss by TGA, 100° C. to 180° C. ([2]; 100° C. to 180° C.): 1.7% | Weight loss by TGA to about 100° C. ([2]; to about 100° C.): about 0.9% | Water uptake (weight gain) up to about 95% relative humidity [3, 7]: 2% | Hygroscopicity (in words) [3, 7]: limited hygroscopicity | Change of x-ray powder diffraction pattern after DVS (in words) [4, 8]: not an appreciable change | pH of the solubility sample, 0.9% Sodium Chloride ([5]; listed as 25HC3S potassium): 8.4 | pH of the solubility sample, 5% Dextrose ([5]; listed as 25HC3S potassium): 7.3 | pH of the solubility sample, FaSSGF [5]: 1.6 | pH of the solubility sample, FaSSIF ([5]; listed as 25HC3S potassium): 6.5 | pH of the solubility sample, FeSSIF [5]: 5.0 | pH of solubility sample solution in water ([5]; water): 8.9 | pH of the solubility sample, Water ([5]; listed as 25HC3S potassium): 8.9 | Decomposition temperature (DSC) [6, 8]: 198 °C | First significant endothermic transition (DSC) ([6]; listed as potassium): ~198 °C

CC(CCCC(C)(C)O)C1CCC2C3CC=C4CC(OS(=O)(=O)O)CCC4(C)C3CCC12C (stereo not shown) [Salt #4]
Powder flowability, overall (in words) ([1]; listed as choline): next group | Angle of Repose Rank Order ([1]; listed as 25HC3S choline): 4 | Hausner Ratio Rank Order ([1]; listed as 25HC3S choline): 15 | Overall Rank Order (Total Score) ([1]; listed as 25HC3S choline): 19 | Weight loss by TGA up to 198° C. (in words) ([2]; up to 198° C.): negligible weight loss | Weight loss on return to 5% relative humidity ([3]; DVS desorption, 95% to 5% RH): 0.5% | Reversibility of water uptake (in words) ([3]; DVS, RH reduced from 95% to 5%, listed as crystalline 25HC3S choline): no hysteresis; also recorded: reversibly lose all that water | Hygroscopicity (in words) ([3]; DVS, listed as 25HC3S choline): surprisingly low hygroscopicity | Hygroscopicity (in words) ([3]; DVS, listed as crystalline 25HC3S choline): not appreciably hygroscopic; also recorded: less hygroscopic | Change of x-ray powder diffraction pattern after DVS (in words) ([4]; listed as crystalline 25HC3S choline): does not appreciably change | pH of the solubility sample, 0.9% Sodium Chloride ([5]; listed as 25HC3S choline): 8.2 | pH of the solubility sample, 5% Dextrose ([5]; listed as 25HC3S choline): 7.3 | pH of the solubility sample, FaSSGF [5]: 1.6 | pH of the solubility sample, FaSSIF ([5]; listed as 25HC3S choline): 6.5 | pH of the solubility sample, FeSSIF [5]: 5.0 | pH of the solubility sample, Water ([5]; listed as 25HC3S choline): 8.8 | First significant endothermic transition (DSC) ([6]; listed as choline): ~198 °C

CC(CCCC(C)(C)O)C1CCC2C3CC=C4CC(OS(=O)(=O)O)CCC4(C)C3CCC12C (stereo not shown) [Salt #6]
Powder flowability, overall (in words) ([1]; listed as hydroxyethylpyrrolidinium): poorer flowability | Angle of Repose Rank Order [1, 9]: 15 | Hausner Ratio Rank Order [1, 9]: 10 | Overall Rank Order (Total Score) [1, 9]: 25 | Weight loss by TGA up to 181° C. ([2]; up to 181° C.): about 0.1% | Change of x-ray powder diffraction pattern after DVS (in words) [4, 10]: different than before | pH of the solubility sample, 0.9% Sodium Chloride [5, 9]: 8.3 | pH of the solubility sample, 5% Dextrose [5, 9]: 6.4 | pH of solubility sample solution in 5% dextrose ([5]; 5% dextrose (medium pH 4.7)): 6.4 | pH of the solubility sample, FaSSGF [5]: 1.6 | pH of the solubility sample, FaSSIF [5, 9]: 6.5 | pH of the solubility sample, FeSSIF [5, 9]: 4.9 | pH of the solubility sample, Water [5, 9]: 8.2 | Decomposition temperature (DSC) [6, 10]: about 181 °C

CC(CCCC(C)(C)O)C1CCC2C3CC=C4CC(OS(=O)(=O)O)CCC4(C)C3CCC12C (stereo not shown) [Salt #8]
Powder flowability, overall (in words) ([1]; listed as tromethammonium): next group | Angle of Repose Rank Order [1, 11]: 8 | Hausner Ratio Rank Order [1, 11]: 6 | Overall Rank Order (Total Score) [1, 11]: 14 | Weight loss by TGA up to about 80° C. ([2]; up to about 80° C.): ~0.3% | Water uptake (weight gain) up to about 95% relative humidity [3, 12]: over 20% | Hygroscopicity (in words) [3, 12]: hygroscopic | Change of x-ray powder diffraction pattern after DVS (in words) [4, 13]: some potential differences | pH of the solubility sample, 0.9% Sodium Chloride [5, 11]: 7.2 | pH of the solubility sample, 5% Dextrose [5, 11]: 7.2 | pH of the solubility sample, FaSSGF [5]: 1.6 | pH of the solubility sample, FaSSIF [5, 11]: 6.5 | pH of the solubility sample, FeSSIF [5, 11]: 4.9 | pH of the solubility sample, Water [5, 11]: 8.4 | Decomposition temperature (DSC) [6, 13]: about 184 °C
